In US8741836B2, “Polypeptides” (Novo Nordisk A/S, priority 2011, dated 2014):
Where two headings read alike, the source gives them in different places. Starred links: 1 amine or outer side, 2 acyl side, 3 side chain; linkers in the order of their positions; H or OH if unused. Positions of bridges follow the written chain, without caps; N, C: chain ends. Residues, ends and D or L forms follow the SMILES beside them. Groups on a side chain read outwards from the residue. *: point of attachment. C18 diacid = O=C(O)CCCCCCCCCCCCCCCCC(=O)*; γGlu = O=C(O)[C@H](CCC(=O)[*:2])N[*:1]; AEEA = NCCOCCOCC(=O)O

Experiments:
[1] = molecular target: T1, human amylin 3(a) receptor (human calcitonin receptor + RAMP-3) (Homo sapiens, UniProt O60896+P30988); experiment: Assay (II)a functional assay, human amylin receptor (CRE luciferase reporter in BHK cells); assay type: cell-based
T1 construct: expressed in transfected cells; CRE-luciferase reporter
T1 sequence (P30988 25-474): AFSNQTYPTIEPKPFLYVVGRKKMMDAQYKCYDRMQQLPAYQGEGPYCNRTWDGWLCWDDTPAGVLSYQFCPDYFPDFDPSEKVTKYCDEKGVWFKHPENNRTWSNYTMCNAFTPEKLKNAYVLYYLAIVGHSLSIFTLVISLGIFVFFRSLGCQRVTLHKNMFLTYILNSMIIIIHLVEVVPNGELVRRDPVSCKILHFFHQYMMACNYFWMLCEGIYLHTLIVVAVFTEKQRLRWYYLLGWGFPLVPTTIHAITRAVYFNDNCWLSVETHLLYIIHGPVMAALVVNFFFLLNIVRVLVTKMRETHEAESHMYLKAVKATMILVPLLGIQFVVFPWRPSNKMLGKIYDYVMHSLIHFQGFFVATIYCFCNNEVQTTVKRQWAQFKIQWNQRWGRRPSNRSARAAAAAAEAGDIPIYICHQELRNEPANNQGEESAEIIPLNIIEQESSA
T1 sequence (O60896 24-148 partner): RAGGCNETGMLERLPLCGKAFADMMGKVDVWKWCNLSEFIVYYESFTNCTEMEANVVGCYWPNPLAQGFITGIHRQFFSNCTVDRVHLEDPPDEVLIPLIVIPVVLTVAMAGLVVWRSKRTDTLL
Excerpt: 1. Luciferase Assay Outline
Activation of calcitonin and amylin (coexpression of calcitonin receptor and receptor activity modifying proteins (RAMP)) receptors lead to increased intracellular concentrations of cAMP. Consequently, transcription is activated by promoters containing multiple copies of the cAMP response element (CRE). It is thus possible to measure amylin activity by the use of a CRE luciferase reporter gene introduced into BHK cells also expressing calcitonin or amylin receptors.
A BHK570 cell line was stably transfected with the human calcitonin receptor and a CRE-responsive luciferase reporter gene. The cell line was further transfected with RAMP-3, using standard methods. This turns the calcitonin receptor into an amylin 3(a) receptor. Methotrexate, Neomycin, and Hygromycin are selection markers for luciferase, the calcitonin receptor, and RAMP-3, respectively.
To perform activity assays, BHK calcitonin (a) receptor- or amylin 3(a)-receptor/CRE-luc cells were seeded in white 96 well culture plates at a density of about 20.000 cells/well. […] After incubation overnight at 37° C. and 5% CO2, the growth medium was replaced by 50 μl/well assay medium (DMEM (without phenol red), Glutamax™, 10% FBS, and 10 mM Hepes, pH 7.4). Further, 50 μl/well of standard or sample in assay buffer were added. After 3 hours incubation at 37° C. and 5% CO2, the assay medium with standard or sample were removed and replaced by 100 μl/well PBS. Further, 100 μl/well LucLite™ was added. The plates were sealed and incubated at room temperature for 30 minutes. Finally, luminescence was measured on a TopCounter (Packard) in SPC (single photon counting) mode.

[2] = molecular target: T2, rat calcitonin (a) receptor (Rattus norvegicus, UniProt P32214); experiment: Assay (II)b functional assay, rat calcitonin receptor (cAMP FlashPlate); assay type: cell-based; conditions: Table 11, read-out: CTa receptor rat EC50
T2 construct: expressed in transfected cells; host or cells: BHK tk'ts 13 (transient, FuGENE 6)
T2 sequence (P32214 25-479 isoform P32214-2 limits assumed): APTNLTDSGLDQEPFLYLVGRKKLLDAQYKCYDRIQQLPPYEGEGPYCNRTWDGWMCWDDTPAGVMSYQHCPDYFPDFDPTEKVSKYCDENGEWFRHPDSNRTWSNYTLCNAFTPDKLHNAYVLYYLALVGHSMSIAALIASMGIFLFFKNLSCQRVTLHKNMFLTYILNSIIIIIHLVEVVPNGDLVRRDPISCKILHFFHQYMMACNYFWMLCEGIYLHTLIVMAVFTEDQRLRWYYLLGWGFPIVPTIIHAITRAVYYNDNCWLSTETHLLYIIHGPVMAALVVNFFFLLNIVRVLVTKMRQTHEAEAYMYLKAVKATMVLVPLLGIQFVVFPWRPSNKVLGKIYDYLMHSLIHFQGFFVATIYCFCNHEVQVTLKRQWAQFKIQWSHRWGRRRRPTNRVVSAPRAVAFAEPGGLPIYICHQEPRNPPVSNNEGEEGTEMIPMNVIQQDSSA
Excerpt: Assay (II)b—Rat Calcitonin and Rat Amylin Receptor Assays
Activation of calcitonin and amylin (coexpression of calcitonin receptor and receptor activity modifying proteins (RAMP)) receptors lead to increased intracellular concentrations of cAMP. In order to quantify the cAMP levels in transiently transfected cells the Adenylyl Cyclase Activation FlashPlate® Assay from Perkin Elmer was used. The basic principle of the FlashPlate® Assay is a competition between radioactive and non-radioactive cAMP generated by the cells for a fixed number of binding sites.
Construction of Rat Calcitonin(a)- and Rat Amylin 3(a)-Receptor Cells.
BHK tk'ts 13 cells were transiently transfected with either rat calcitonin (a) receptor or amylin 3 (a) receptor (rat calcitonin(a) receptor+rat RAMP3) using FuGENE® 6 (Roche), according to the manufacturers recommendations.
24 hours after transient transfection the cells (rat calcitonin(a)- or rat amylin 3(a)-receptor cells) were added (100.000 cells/well) to the 96 well FlashPlates® with samples or standard in FlashPlate stimulation buffer with IBMX and incubated for 30 min. Detection mix was created according to manufacturers protocol and scintillation measured after 3 h of incubation on TopCounter™ (Packard).

Measured: EC50

CC[C@H](C)[C@H](NC(=O)[C@@H]1CCCN1C(=O)CNC(=O)[C@H](Cc1ccccc1)NC(=O)[C@H](CC(N)=O)NC(=O)[C@H](CCCCNC(=O)COCCOCCNC(=O)COCCOCCNC(=O)CC[C@H](NC(=O)CCCCCCCCCCCCCCCCC(=O)O)C(=O)O)NC(=O)[C@H](CO)NC(=O)[C@H](CO)NC(=O)[C@H](Cc1c[nH]cn1)NC(=O)[C@H](Cc1c[nH]cn1)NC(=O)[C@H](CC(C)C)NC(=O)[C@H](Cc1ccccc1)NC(=O)[C@H](CCC(=O)O)NC(=O)[C@H](C)NC(=O)[C@H](CC(C)C)NC(=O)[C@H](CCCNC(=N)N)NC(=O)[C@H](CCC(N)=O)NC(=O)[C@@H](NC(=O)[C@H](C)NC(=O)[C@@H]1CSSC[C@H](NC(=O)[C@@H](N)CCCCN)C(=O)N[C@@H](CC(N)=O)C(=O)N[C@@H]([C@@H](C)O)C(=O)N[C@@H](C)C(=O)N[C@@H]([C@@H](C)O)C(=O)N1)[C@@H](C)O)C(=O)N[C@@H](CC(C)C)C(=O)N1CCC[C@H]1C(=O)N1CCC[C@H]1C(=O)N[C@H](C(=O)N[C@@H](CC(N)=O)C(=O)N[C@H](C(=O)NCC(=O)N[C@@H](CO)C(=O)N[C@@H](CCC(=O)O)C(=O)N[C@H](C(=O)N[C@@H](Cc1ccc(O)cc1)C(N)=O)[C@@H](C)O)C(C)C)[C@@H](C)O [Example 74, N-epsilon21-[2-(2-{2-[2-(2-{2-[(S)-4-Carboxy-4-(17-carboxyheptadecanoylamino)butyrylamino]ethoxy}ethoxy)acetylamino]ethoxy}ethoxy)acetyl]-[Glu14,His17,Lys21,Glu35]-pramlintide] (H-KCNTATCATQRLAEFLHHSSK([AEEA-AEEA-γGlu-C18 diacid])NFGPILPPTNVGSETY-NH2; disulfide 2-7 (inferred); N-terminus and C-terminus assumed)
2.06 nM: [2]
0.184 nM: [1] | [1]; Table 4 | [1]; Table 5 | [1]; Table 6, human amylin receptor | [1]; Table 7, human amylin receptor | [1]; Table 8, human amylin receptor | [1]; Table 11, human amylin receptor
